Laboratory results: ChEMBL document CHEMBL1177725, “6-(3,4-dichlorophenyl)-1-[(methyloxy)methyl]-3-azabicyclo[4.1.0]heptane: a new potent and selective triple reuptake inhibitor” (J Med Chem, 2010)

Assays:
Assay type in all cases: cell-based
[1] = target: Sodium-dependent serotonin transporter (Homo sapiens, UniProt P31645); experiment: Displacement of [N-methyl-3H]citalopram from human recombinant SERT expressed in pig LLCPK cells after 2 hrs by liquid scintillation counting
[2] = target: Sodium-dependent dopamine transporter (Homo sapiens, UniProt Q01959); experiment: Displacement of [N-methyl-3H]WIN-35428 from human recombinant DAT expressed in pig LLCPK cells after 2 hrs by liquid scintillation counting
[3] = target: Sodium-dependent noradrenaline transporter (Homo sapiens, UniProt P23975); experiment: Displacement of [N-methyl-3H]nisoxetine from human recombinant NET expressed in pig LLCPK cells after 2 hrs by liquid scintillation counting
Sodium-dependent noradrenaline transporter, sequence (P23975 whole entry): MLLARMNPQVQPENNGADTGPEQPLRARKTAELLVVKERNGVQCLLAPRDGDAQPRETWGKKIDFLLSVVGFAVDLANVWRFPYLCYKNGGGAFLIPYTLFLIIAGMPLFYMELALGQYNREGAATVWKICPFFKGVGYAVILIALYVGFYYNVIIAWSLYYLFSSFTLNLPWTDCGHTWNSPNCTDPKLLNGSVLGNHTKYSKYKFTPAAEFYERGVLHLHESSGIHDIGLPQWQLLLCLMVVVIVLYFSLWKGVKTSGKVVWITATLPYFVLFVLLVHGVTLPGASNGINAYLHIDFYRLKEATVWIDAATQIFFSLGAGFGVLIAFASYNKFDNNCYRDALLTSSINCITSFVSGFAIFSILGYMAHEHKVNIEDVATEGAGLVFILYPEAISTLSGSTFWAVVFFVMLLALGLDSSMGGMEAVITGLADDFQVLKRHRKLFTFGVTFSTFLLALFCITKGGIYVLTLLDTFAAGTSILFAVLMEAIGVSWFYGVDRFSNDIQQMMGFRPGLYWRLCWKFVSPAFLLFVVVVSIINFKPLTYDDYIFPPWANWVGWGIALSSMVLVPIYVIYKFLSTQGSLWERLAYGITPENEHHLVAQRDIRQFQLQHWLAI

Sodium-dependent dopamine transporter, sequence (Q01959 whole entry): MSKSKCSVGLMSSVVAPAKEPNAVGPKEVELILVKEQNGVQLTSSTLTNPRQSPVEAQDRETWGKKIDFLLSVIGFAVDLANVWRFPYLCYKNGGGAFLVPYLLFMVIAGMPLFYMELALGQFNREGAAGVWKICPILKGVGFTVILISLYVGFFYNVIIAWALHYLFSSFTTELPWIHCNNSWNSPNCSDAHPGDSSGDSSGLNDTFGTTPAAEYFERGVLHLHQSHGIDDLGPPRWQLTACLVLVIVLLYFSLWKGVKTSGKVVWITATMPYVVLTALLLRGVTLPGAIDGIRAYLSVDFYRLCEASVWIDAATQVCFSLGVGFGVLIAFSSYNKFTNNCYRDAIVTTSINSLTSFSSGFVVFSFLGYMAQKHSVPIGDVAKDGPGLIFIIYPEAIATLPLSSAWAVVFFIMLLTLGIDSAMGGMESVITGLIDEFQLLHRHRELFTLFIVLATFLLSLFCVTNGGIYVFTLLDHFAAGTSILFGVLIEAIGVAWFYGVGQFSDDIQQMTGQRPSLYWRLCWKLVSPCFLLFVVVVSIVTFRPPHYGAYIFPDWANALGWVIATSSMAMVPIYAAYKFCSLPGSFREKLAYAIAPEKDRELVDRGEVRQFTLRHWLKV
Sodium-dependent serotonin transporter, sequence (P31645 whole entry): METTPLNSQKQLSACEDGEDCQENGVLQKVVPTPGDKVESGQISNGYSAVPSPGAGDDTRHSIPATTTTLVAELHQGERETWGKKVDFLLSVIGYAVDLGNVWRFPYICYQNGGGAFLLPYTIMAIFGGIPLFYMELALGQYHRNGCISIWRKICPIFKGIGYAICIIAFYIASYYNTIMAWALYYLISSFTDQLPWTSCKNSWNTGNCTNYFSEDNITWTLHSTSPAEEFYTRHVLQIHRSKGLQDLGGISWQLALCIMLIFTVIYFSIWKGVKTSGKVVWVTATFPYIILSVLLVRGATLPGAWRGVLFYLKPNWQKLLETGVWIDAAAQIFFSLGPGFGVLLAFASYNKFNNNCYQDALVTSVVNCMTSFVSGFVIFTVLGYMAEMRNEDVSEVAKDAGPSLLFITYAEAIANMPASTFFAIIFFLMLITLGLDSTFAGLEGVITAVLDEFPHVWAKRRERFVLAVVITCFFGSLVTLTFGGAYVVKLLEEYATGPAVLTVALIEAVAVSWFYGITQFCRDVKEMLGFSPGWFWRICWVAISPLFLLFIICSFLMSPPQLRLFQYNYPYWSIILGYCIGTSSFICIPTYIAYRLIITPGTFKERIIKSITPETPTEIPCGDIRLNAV

SMILES | Ki [1] | Ki [2] | Ki [3]
COC[C@@]12CNCC[C@]1(c1ccc3ccccc3c1)C2 (single isomer, unassigned; 27) [1-(METHOXYMETHYL)-6-(NAPHTHALEN-2-YL)-3-AZABICYCLO[4.1.0]HEPTANE (ENANTIOMERIC MIX)] | 1 nM | 100 nM | 39.8 nM
CCOC(=O)[C@@]12CNCC[C@]1(c1ccc(Cl)c(Cl)c1)C2 (racemic) | 15.8 nM | 5.01 nM | 7.94 nM
COC[C@@]12CN(C(C)C)CC[C@]1(c1ccc(Cl)c(Cl)c1)C2 | 631 nM | 1260 nM | 5010 nM
COC[C@@]12CCNC[C@]1(c1ccc(Cl)c(Cl)c1)C2 (relative stereo) [RAC-1-(3,4-DICHLOROPHENYL)-6-(METHOXYMETHYL)-2-AZABICYCLO[4.1.0]HEPTANE (ENANTIOMERS)] | 12.6 nM | 63.1 nM | 100 nM
Clc1ccc([C@@]23CCNC[C@@H]2C3)cc1Cl (single isomer, unassigned) [RAC-1-(3,4-DICHLO ROPHENYL)-3-AZABICYCLO[4.1.0]HEPTANE (ENANTIOMERS)] | 12.6 nM | 25.1 nM | 100 nM
COC[C@@]12CNC[C@@H](F)[C@]1(c1ccc(Cl)c(Cl)c1)C2 (racemic) | 3.98 nM | 100 nM | 50.1 nM
OC[C@@]12CNCC[C@]1(c1ccc(Cl)c(Cl)c1)C2 (racemic) [RAC-1-(3,4-DICHLOROPHENYL)-3-AZABICYCLO[4.1.0]HEPTAN-6-YL)METHANOL (STRUCTURAL MIX)] | 20 nM | 200 nM | 158 nM
C=CCC(OC)[C@]12CNCC[C@]1(c1ccc(Cl)c(Cl)c1)C2 (mixture of isomers; form 2) [6-(3,4-DICHLOROPHENYL)-1-[1-(METHYLOXY)-3-BUTEN-1-YL]-3-AZABICYCLO[4.1.0]HEPTANE (DIASTEREOMERIC MIX)] | 1.26 nM | 1.58 nM | 3.98 nM
Clc1ccc([C@]23CCN4CC[C@]2(C4)C3)cc1Cl (single isomer, unassigned; 50) [3-(3,4-DICHLORO-PHENYL)-6-AZA-TRICYCLO[4.2.1.0*1,3*]NONANE (STRUCTURAL MIX)] | 31.6 nM | 251 nM | 794 nM
COC[C@@]12CNCC[C@]1(c1ccc(OC(F)(F)F)cc1)C2 (racemic) | 3.16 nM | 7940 nM | 3160 nM
OC[C@@]12CNCC[C@]1(c1ccc(Cl)c(Cl)c1)C2 (relative stereo; 14) [RAC-1-(3,4-DICHLOROPHENYL)-3-AZABICYCLO[4.1.0]HEPTAN-6-YL)METHANOL (STRUCTURAL MIX)] | 39.8 nM | 100 nM | 398 nM
FC(F)(F)COC[C@@]12CNCC[C@]1(c1ccc(Cl)c(Cl)c1)C2 (racemic) | 6.31 nM | 39.8 nM | 79.4 nM
COC[C@@]12CNCC[C@]1(c1ccc(C(F)(F)F)c(Cl)c1)C2 (racemic) | 15.8 nM | 1580 nM | 126 nM
COC[C@@]12CNCC[C@]1(c1ccc(F)c(Cl)c1)C2 (racemic) | 1.58 nM | 158 nM | 316 nM
Clc1ccc([C@]23CNCC[C@H]2C3)cc1Cl (relative stereo; 4) [1-PHENYL-3-AZABICYCLO[4.1.0]HEPTANE (STRUCTURAL MIX)] | 79.4 nM | 39.8 nM | 63.1 nM
COC[C@@]12CNC[C@H](OC)[C@]1(c1ccc(Cl)c(Cl)c1)C2 (racemic) | 100 nM | 501 nM | 1260 nM
COC[C@@]12CNC[C@H](F)[C@]1(c1ccc(Cl)c(Cl)c1)C2 (racemic) | 5.01 nM | 100 nM | 100 nM
CCOC[C@@]12CNCC[C@]1(c1ccc(Cl)c(Cl)c1)C2 (racemic) [6-(3,4-DICHLOROPHENYL)-1-[(ETHYLOXY)METHYL]-3-AZABICYCLO[4.1.0]-HEPTANE (ENANTIOMERIC MIX)] | 1.26 nM | 6.31 nM | 10 nM
CC(=O)[C@@]12CNCC[C@]1(c1ccc(Cl)c(Cl)c1)C2 (relative stereo) | 1 nM | 3.98 nM | 15.8 nM
COC[C@@]12CNCC[C@]1(c1ccc(Cl)c(C(F)(F)F)c1)C2 (racemic) | 15.8 nM | 3160 nM | 200 nM
CC#CNC(=O)[C@@]12CNCC[C@]1(c1ccc(Cl)c(Cl)c1)C2 (racemic) | 100 nM | 158 nM | 501 nM
COC[C@@]12CNCC[C@]1(c1ccc3ccccc3c1)C2 (racemic) [1-(METHOXYMETHYL)-6-(NAPHTHALEN-2-YL)-3-AZABICYCLO[4.1.0]HEPTANE (ENANTIOMERIC MIX)] | 0.316 nM | 31.6 nM | 12.6 nM

SMILES | Ki [1] | Ki [2] | Ki [3]
Clc1ccc([C@@]23CCNC[C@@H]2C3)cc1Cl (relative stereo) [RAC-1-(3,4-DICHLO ROPHENYL)-3-AZABICYCLO[4.1.0]HEPTANE (ENANTIOMERS)] | 39.8 nM | 50.1 nM | 251 nM
COC[C@@]12CNC[C@@H](OC)[C@]1(c1ccc(Cl)c(Cl)c1)C2 (racemic) | 251 nM | 398 nM | 1580 nM
CCOC[C@@]12CNCC[C@]1(c1ccc(Cl)c(Cl)c1)C2 (relative stereo; 30) [6-(3,4-DICHLOROPHENYL)-1-[(ETHYLOXY)METHYL]-3-AZABICYCLO[4.1.0]-HEPTANE (ENANTIOMERIC MIX)] | 10 nM | 63.1 nM | 100 nM
Clc1ccc([C@]23CCNC[C@@]2(COCC2CC2)C3)cc1Cl (relative stereo; 35) [1-((CYCLOPROPYLMETHOXY)METHYL)-6-(3,4-DICHLOROPHENYL)-3-AZABICYCLO[4.1.0]HEPTANE (ENANTIOMERIC MIX)] | 3.98 nM | 63.1 nM | 126 nM
OC[C@@]12CNCC[C@]1(c1ccc(Cl)c(Cl)c1)C2 (relative stereo; 15) [RAC-1-(3,4-DICHLOROPHENYL)-3-AZABICYCLO[4.1.0]HEPTAN-6-YL)METHANOL (STRUCTURAL MIX)] | 7.94 nM | 79.4 nM | 100 nM
Clc1ccc([C@@]23CCNC[C@@H]2C3)cc1Cl (racemic) [RAC-1-(3,4-DICHLO ROPHENYL)-3-AZABICYCLO[4.1.0]HEPTANE (ENANTIOMERS)] | 25.1 nM | 50.1 nM | 251 nM
COC[C@@]12CNCC[C@]1(c1ccc(Cl)cc1)C2 (racemic) | 15.8 nM | 251 nM | 200 nM
COC[C@@]12CN(C)CC[C@]1(c1ccc(Cl)c(Cl)c1)C2 | 12.6 nM | 31.6 nM | 794 nM
COC[C@@]12CN[C@@H](C)C[C@]1(c1ccc(Cl)c(Cl)c1)C2 (racemic) | 7.94 nM | 39.8 nM | 50.1 nM
Clc1ccc([C@]23CCNC[C@@]2(COCC2CC2)C3)cc1Cl (racemic) [1-((CYCLOPROPYLMETHOXY)METHYL)-6-(3,4-DICHLOROPHENYL)-3-AZABICYCLO[4.1.0]HEPTANE (ENANTIOMERIC MIX)] | 1.26 nM | 12.6 nM | 50.1 nM
Clc1ccc([C@]23CCN4CC[C@]2(C4)C3)cc1Cl (single isomer, unassigned; 49) [3-(3,4-DICHLORO-PHENYL)-6-AZA-TRICYCLO[4.2.1.0*1,3*]NONANE (STRUCTURAL MIX)] | 1.58 nM | 79.4 nM | 63.1 nM
Clc1ccc([C@]23CNCC[C@H]2C3)cc1Cl (relative stereo; 5) [1-PHENYL-3-AZABICYCLO[4.1.0]HEPTANE (STRUCTURAL MIX)] | 251 nM | 100 nM | 398 nM
Clc1ccc([C@@H]2CCNC[C@@]23CCCOC3)cc1Cl | 0.316 nM | 12.6 nM | 3.98 nM
Clc1ccc([C@]23CNCC[C@H]2C3)cc1Cl (racemic) [1-PHENYL-3-AZABICYCLO[4.1.0]HEPTANE (STRUCTURAL MIX)] | 126 nM | 79.4 nM | 158 nM
COC[C@H]1[C@@H]2CNCC[C@@]21c1ccc(Cl)c(Cl)c1 (racemic) | 50.1 nM | 1260 nM | 2000 nM
NC(=O)[C@@]12CNCC[C@]1(c1ccc(Cl)c(Cl)c1)C2 (racemic) | 100 nM | 251 nM | 794 nM
CCOC[C@@]12CNCC[C@]1(c1ccc(Cl)c(Cl)c1)C2 (relative stereo; 31) [6-(3,4-DICHLOROPHENYL)-1-[(ETHYLOXY)METHYL]-3-AZABICYCLO[4.1.0]-HEPTANE (ENANTIOMERIC MIX)] | 1 nM | 3.98 nM | 7.94 nM
COC[C@@]12CCNC[C@]1(c1ccc(Cl)c(Cl)c1)C2 (single isomer, unassigned) [RAC-1-(3,4-DICHLOROPHENYL)-6-(METHOXYMETHYL)-2-AZABICYCLO[4.1.0]HEPTANE (ENANTIOMERS)] | 158 nM | 631 nM | 1000 nM
COC[C@@H]1[C@@H]2CCNC[C@]12c1ccc(Cl)c(Cl)c1 (racemic) | 31.6 nM | 126 nM | 63.1 nM
COC[C@@H]1[C@@H]2CNCC[C@]12c1ccc(Cl)c(Cl)c1 (racemic) | 10 nM | 398 nM | 316 nM
Clc1ccc([C@]23CCNC[C@@]2(COCC2CC2)C3)cc1Cl (relative stereo; 34) [1-((CYCLOPROPYLMETHOXY)METHYL)-6-(3,4-DICHLOROPHENYL)-3-AZABICYCLO[4.1.0]HEPTANE (ENANTIOMERIC MIX)] | 0.398 nM | 3.16 nM | 20 nM
